According to patent US11207427B2, “System and method for diagnosis of astrocytic brain tumor” (Dignity Health, priority 2012, dated 2021):
“Also recorded” adds a separate entry of the source.

What was measured:
[1] = tested on: GFAP-positive astrocytoma cells (U251); test: Fixable SR101 co-labeling with GFAP in astrocytoma xenograft acute slices, confocal stereology; format: cell-based, human astrocytoma cells implanted in nude rats; details: for cells positive for fixable SR101 in astrocytoma tumor regions: tumor core, acute slices, GFAP and DAPI counterstain
Protocol: (§1) Xenograft acute slices were incubated with the fixable version of SR101 (Texas Red Hydrazide; Sigma), washed at room temperature, and fixed with 4% paraformaldehyde for 12 hours at 4 degrees C. Slices were then rinsed in phosphate buffered saline, permeabilized with 0.3% triton, and blocked with CAS block (Invitrogen) (reference Pierre's paper). GBM xenograft slices were incubated 12-hours in anti-GFAP primary antibody (Millipore; 1:500), and Lymphoma sections were incubated 12-hours in anti-CD20 primary antibody (Millipore; 1:250). Sections were then rinsed and incubated with AlexaFluor488 secondary antibody (Invitrogen), followed by nuclear counterstaining with Dapi (Invitrogen). Fluorescently labeled sections were mounted on slides with vectashield (Vector labs) and No1.5 coverslips (VWR).
We randomly selected one rostral, midline, and caudal acute slice from each brain containing tumor incubated with fixable SR101. Glioma slices were immunofluorescently stained for GFAP, and slices containing lymphoma were stained for CD20. Ten randomly selected 150 um^2 tumor areas in each slice were optically sectioned to 50 um with a Zeiss 710LSM. The first […] of each image stack was discarded to minimize counts from cells damaged during sectioning. A maximum intensity projection image was generated from the remaining 45 um, and a stereology dissector was overlaid onto the image. Cells within the dissector, and those in contact with its left and bottom edges were counted for either GFAP or CD20 positivity, and for SR101 positivity. The percent overlap between immunostaining and SR101 positivity was calculated. […]
(§2) Next, we incubated acute slices from astrocytoma and CNS lymphoma animal models with fixable-SR101 and quantified the staining localization to GFAP for astrocytoma slices and CD20 for lymphoma slices. We adapted standard stereology approaches to quantify tumor cells labeled with fixable-SR101 and GFAP or CD20 antibodies. […]

[2] = tested on: human glioma cells in a rodent xenograft; test: In vivo labeling after intra-arterial injection of fixable SR101; set-up: species or system rat; details: brains processed two hours post-injection
Excerpt: Twenty days post-implantion, rats were deeply anesthetized using the previously described ketamin/xylazine mixture. The rats were then intra-arterially injected with Texas red hydrazide. Two hours post-injection brains were perfused, fixed, and sectioned on a cryostat. Sections were mounted on slides and imaged with a Zeiss LSM 710 confocal microscope.

[3] = tested on: human glioma cell line U251; test: In vitro SR101 labeling of cultured astrocytoma cells; format: cell-based; details: 5 uM SR101, 20 minutes, DIC imaging with fluorescence overlay
Protocol: We acquired human glioma cell line U251 and human CNS lymphoma cell line MC116 from ATCC. Cells were maintained in culture with DMEM media supplemented with 10% FBS, and RPMI media supplemented with 20% FBS respectively (all from Invitrogen, Grand Island, N.Y.). Cells were grown at 37° C. in a humidified incubator under 5% CO2.
We labeled U251 glioma cells by seeding a collagen-coated glass-bottom dish (MatTek) with 100,000 cells. After 24 hours, media was replaced with aCSF containing 5 uM SR101 (Sigma) for 20 minutes, followed by two 5 minute washes with standard aCSF.
(§3) SR101-labeled samples were placed in uncoated No. 1.5 glass-bottom dishes and positioned on the stage of a Zeiss 710 laser scanning confocal microscope equipped with a 40×/1.2 NA water emersion objection. We imaged SR101 by exciting the fluorophore with a 561 nm diode laser and collecting 595 nm-625 nm emission. The confocal aperature was set to Airy unit for all imaging. The laser and gain values were set to fill the dynamic range of the photomultiplier tube, and the frame size was set to sample at nyquist. Images were collected in 8 and 12 bit format absent of non-linear processing. An unstained adjacent tissue sample was imaged with each sample. In some cases, large field-of-view tiled and optically sectioned images were rapidly acquired using a Zeiss line-sweeping confocal microscope. […]

U251 derived tumor = test: SR101 staining of acute slices from U251 rodent xenografts, confocal imaging; format: cell-based, human astrocytoma cells implanted in nude rats
Protocol: Animals were anesthetized by intramuscular injection of a mixture of 10 mg/kg xylazine and 80 mg/kg ketamine (Wyeth, Madison, N.J.) and placed in a small animal stereotactic headframe (Model 900, David Kopf Instruments, Tujunga, Calif.). A 10-mm incision was made starting between the animal's eyes, exposing bregma. A bur hole was made 3.5 mm lateral to bregma. U251 or MC116 cells were infused at a depth of 4.5 mm below the surface of the brain after the syringe (Hamilton) was advanced 5.0 mm to create a 0.5-mm pocket. The cell suspension was infused using a UMP3-1 UltraMicroPump microinjector (WPI, Sarasota, Fla.) set to a volume of […] with an infusion rate of 3.00 μL/minute. The needle was withdrawn 2 minutes after the injection to minimize backflow of the cell suspension. The bur hole was covered with bone wax and the skin incision was sutured.
Twenty days post-implantation, rats were deeply anesthetized using the xylazine/ketamine mixture as described previously. Animals were rapidly decapitated, brains were removed, and coronal cortical slices (350 μm thick) were cut on a vibratome (Trent's aCSF protocol). Slices were then incubated at room temperature in aCSF containing 5 uM SR101 for 20 minutes followed by a 10 minute wash in aCSF.
as §3

[4] = tested on: CD20 positive lymphoma cells (MC116); test: SR101 / fixable SR101 staining and CD20 co-labeling in CNS lymphoma xenograft acute slices, confocal stereology; format: cell-based, human CNS lymphoma cells implanted in nude rats
Protocol: as §1, with “Fluorescently labeled sections were mounted on slides with vectashield (Vector labs) and No1.5 coverslips (VWR).” left out
We randomly selected one rostral, midline, and caudal acute slice from each brain containing tumor incubated with fixable SR101. […] Cells within the dissector, and those in contact with its left and bottom edges were counted for either GFAP or CD20 positivity, and for SR101 positivity. The percent overlap between immunostaining and SR101 positivity was calculated. […]
as §2

[5] = tested on: human brain tumor biopsies; test: SR101 staining of fresh human brain tumor biopsies, confocal imaging; format: cell-based
Protocol: This research was approved by the institutional review board at St. Joseph's Hospital and Medical Center and all surgery was performed at the Barrow Neurological Institute. All subjects were consented pre-operatively for participation. Samples were obtained at the time of craniotomy from within the tumor mass at a location determined to be safe by the surgeon. The samples, averaging 4×2×2 mm in size, were transferred into ice-cold artificial cerebrospinal fluid (aCSF) containing 5 uM SR101. Samples were then transferred from the operating room to the laboratory, rinsed with aCSF (10 minutes), and immediately imaged.
SR101-labeled samples were placed in uncoated No. 1.5 glass-bottom dishes and positioned on the stage of a Zeiss 710 laser scanning confocal microscope equipped with a 40×/1.2 NA water emersion objection. We imaged SR101 by exciting the fluorophore with a 561 nm diode laser and collecting 595 nm-625 nm emission. The confocal aperature was set to Airy unit for all imaging. The laser and gain values were set to fill the dynamic range of the photomultiplier tube, and the frame size was set to sample at nyquist. Images were collected in 8 and 12 bit format absent of non-linear processing. An unstained adjacent tissue sample was imaged with each sample. In some cases, large field-of-view tiled and optically sectioned images were rapidly acquired using a Zeiss line-sweeping confocal microscope. Frame size for this system was fixed to 512×512 by a linear charged coupled device (CCD) array.
After we identified SR101's ability to rapidly label and differentiate astrocytoma cells and reactive astrocytes in animal models, we tested its utility as an intraoperative diagnostic agent. We determined the feasibility of intraoperatively identifying astrocytic brain tumors by confocal fluorescence imaging of fresh human brain tumor biopsies labeled with SR101. We screened samples from 60* patients with a total of 10 common human brain tumor types. The diagnosis as determined by traditional immunohistochemistry and paraffin-embedded hematoxylin and eosin histopathology was accepted as the final diagnosis for the purposes of comparison.
Tissue samples were transported in artificial cerebrospinal fluid and imaged within 30-40 minutes of resection. We first found SR101 filled the cytoplasm of astrocytes in non-tumor burdened brain (FIG. 4A). Next, we studied tissue sampled from tumor margins and found SR101 filled the cytoplasm of reactive astrocytes and tumor cells in these regions (FIG. 4B). […] At higher magnification we observed that SR101 delineated some cell nuclei and identified nuclear atypia which is a common feature of some gliomas (FIG. 4C).

Row | SMILES | cells positive for fixable SR101 in astrocytoma tumor regions [1] | cells positive for fixable SR101 in astrocytoma tumor regions ([1]; listed as Fixable-SR101) | in vivo labeling of tumor cells and tumor margin [2] | SR101 labeling of cultured U251 astrocytoma cells [3] | mean fluorescence intensity (MFI), tumor (U251 derived tumor; SR101-labeled tumor core, acute slice, 5 uM SR101 20 minutes) | mean fluorescence intensity (MFI), background (U251 derived tumor; background of SR101-labeled tumor core image, acute slice) | difference in mean fluorescence intensity between U251 cells and reactive astrocytes (U251 derived tumor; normalized to background, n=9 optical sections from 3 acute slices) | co-localization with GFAP-positive cells in astrocytoma regions ([1]; U251 xenograft acute slices, fixable SR101, stereology) | co-localization with CD20 positive cells in lymphoma tumor regions ([4]; MC116 xenograft acute slices, fixable SR101, stereology) | SR101 signal / cells labeled in lymphoma regions ([4]; acute slices from nude rats implanted with human CNS lymphoma cells) | staining of human lymphoma ([5]; human biopsies) | astrocytoma cases selectively stained ([5]; human biopsies versus final diagnosis) | staining of cells from astrocytoma tumor cores ([5]; human biopsies, 5 uM SR101) | staining of non-astrocytic tumor samples / other CNS neoplasms ([5]; human biopsies, 5 uM SR101) | labeling of low grade human oligodendroglioma samples ([5]; human biopsies, samples often GFAP positive)
1 | NNS(=O)(=O)c1ccc(C2=c3cc4c5c(c3Oc3c2cc2c6c3CCCN6CCC2)CCC[N+]=5CCC4)c(S(=O)(=O)[O-])c1 [fixable SR101, Texas Red Hydrazide] | majority of cells were positive | labeled the majority of cells | specific in vivo labeling of human glioma cells |  |  |  |  |  |  |  |  |  |  |  | 
2 | O=S(=O)([O-])c1cc(S(=O)(=O)O)ccc1C1=c2cc3c4c(c2Oc2c1cc1c5c2CCCN5CCC1)CCC[N+]=4CCC3 [SR101, Sulforhodamine 101] |  |  |  | filled the cytoplasm of the cultured cell and clearly delineated cell nuclei | 102.84 | 8.74 | no statistically significant difference; also recorded: did not differ | 79.6% | 1.97% | minimal; also recorded: small number of cells | negative; also recorded: failed to stain | 14 of 15 | strong cytoplasmic staining | did not stain; also recorded: non-specific background staining | does not stain; also recorded: did not label
